{"source": "patent US20260216238A1", "about": "“TETRATHIOMOLYBDIC ACID FOR USE IN TREATING COPPER METABOLISM-ASSOCIATED DISEASES OR DISORDERS (WILSON DISEASE)” (Alexion Pharmaceuticals, Inc., priority 2023, published 2026)", "key": {"[1]": {"tested_on": "patients with Wilson disease (WD)", "experimental": "This assessment is also applicable to SoC treatments. In addition, plasma Cp, CpC, plasma total copper, and LBC were measured with AUEC calculated for plasma total copper and LBC.\nThe LBC method measures exchangeable plasma copper that is not bound to either Cp or TPC.\nPharmacodynamics: Blood samples were collected to directly measure plasma total copper, PUF copper, dNCC, and LBC. Calculations may be performed for cNCC and cNCCcorrected, the latter of which is non-ceruloplasmin-bound and non-molybdenum-albumin-bound copper."}, "participants with WD": {"tested_on": "participants with WD", "source_text": "The term “dNCC” refers to NCC as directly measured using an NCC assay. For example, in certain embodiments of the methods, uses, or compositions (e.g., comprising tetrathiomolybdic acid or a pharmaceutically acceptable salt thereof) of the disclosure, dNCC is directly measured using the NCC assay as disclosed in PCT Patent Application Publication No. WO2021/050850, filed on Sep.\nThese participants had all intake (food and drink) and output (urine and feces) collected from Day −4 through Day −1 (baseline), from Day 1 through Day 8, and Day 25 through Day 39."}}, "note": "Like-named read-outs stand apart in the source and are kept apart here."}
{"substance": "bis-choline tetrathiomolybdate [TTM]", "values": [{"measurement": "AUEC(0-48 week) LBC, Mean", "setting": "[1]; Adolescent", "result": 1.5, "unit": "mmol/L"}, {"measurement": "AUEC(0-48 week) LBC, Median", "setting": "[1]; Adolescent", "result": 1.2, "unit": "mmol/L"}, {"measurement": "AUEC(0-48 week) PTC (plasma total copper), Mean", "setting": "[1]; Adolescent", "result": 7.5, "unit": "mmol/L"}, {"measurement": "AUEC(0-48 week) PTC (plasma total copper), Median", "setting": "[1]; Adolescent", "result": 5.4, "unit": "mmol/L"}, {"measurement": "AUEC(0-48 week) dNCC, Mean", "setting": "[1]; Adolescent", "result": 2.7, "unit": "mmol/L"}, {"measurement": "AUEC(0-48 week) dNCC, Median", "setting": "[1]; Adolescent", "result": 2.3, "unit": "mmol/L"}, {"measurement": "AUEC(0-48 week) LBC, Mean", "setting": "[1]; Adult", "result": 1.8, "unit": "mmol/L"}, {"measurement": "AUEC(0-48 week) LBC, Median", "setting": "[1]; Adult", "result": 1.2, "unit": "mmol/L"}, {"measurement": "AUEC(0-48 week) PTC (plasma total copper), Mean", "setting": "[1]; Adult", "result": 7.8, "unit": "mmol/L"}, {"measurement": "AUEC(0-48 week) PTC (plasma total copper), Median", "setting": "[1]; Adult", "result": 7.3, "unit": "mmol/L"}, {"measurement": "AUEC(0-48 week) dNCC, Mean", "setting": "[1]; Adult", "result": 3.2, "unit": "mmol/L"}, {"measurement": "AUEC(0-48 week) dNCC, Median", "setting": "[1]; Adult", "result": 2.2, "unit": "mmol/L"}, {"measurement": "Increase from Baseline in Directly Measured NCC, Mean", "setting": "participants with WD; Day 1, 2 Hours Post-Dose", "result": 0.5004, "unit": "µmol/L"}, {"measurement": "Increase from Baseline in Directly Measured NCC, Mean", "setting": "participants with WD; Day 1, 4 Hours Post-Dose", "result": 1.96, "unit": "µmol/L"}, {"measurement": "Increase from Baseline in Directly Measured NCC, Mean", "setting": "participants with WD; Day 1, 5 Hours Post-Dose", "result": 2.719, "unit": "µmol/L"}, {"measurement": "Increase from Baseline in Directly Measured NCC, Mean", "setting": "participants with WD; Day 1, 6 Hours Post-Dose", "result": 2.324, "unit": "µmol/L"}, {"measurement": "Increase from Baseline in Directly Measured NCC, Mean", "setting": "participants with WD; Day 1, 8 Hours Post-Dose", "result": 2.402, "unit": "µmol/L"}, {"measurement": "Increase from Baseline in Directly Measured NCC, Mean", "setting": "participants with WD; Day 1, 12 Hours Post-Dose", "result": 1.725, "unit": "µmol/L"}, {"measurement": "Increase from Baseline in Directly Measured NCC, Mean", "setting": "participants with WD; Day 1, 24 Hours Post-Dose", "result": 1.063, "unit": "µmol/L"}, {"measurement": "Increase from Baseline in Directly Measured NCC, Mean", "setting": "participants with WD; Day 4, Pre-Dose", "result": 2.677, "unit": "µmol/L"}, {"measurement": "Increase from Baseline in Directly Measured NCC, Mean", "setting": "participants with WD; Day 5, Pre-Dose", "result": 3.144, "unit": "µmol/L"}, {"measurement": "Increase from Baseline in Directly Measured NCC, Mean", "setting": "participants with WD; Day 6, Pre-Dose", "result": 3.574, "unit": "µmol/L"}, {"measurement": "Increase from Baseline in Directly Measured NCC, Mean", "setting": "participants with WD; Day 7, Pre-Dose", "result": 3.7, "unit": "µmol/L"}, {"measurement": "Increase from Baseline in Directly Measured NCC, Mean", "setting": "participants with WD; Day 25, 2 Hours Post-Dose", "result": 2.551, "unit": "µmol/L"}, {"measurement": "Increase from Baseline in Directly Measured NCC, Mean", "setting": "participants with WD; Day 25, 4 Hours Post-Dose", "result": 3.443, "unit": "µmol/L"}, {"measurement": "Increase from Baseline in Directly Measured NCC, Mean", "setting": "participants with WD; Day 25, 5 Hours Post-Dose", "result": 3.38, "unit": "µmol/L"}, {"measurement": "Increase from Baseline in Directly Measured NCC, Mean", "setting": "participants with WD; Day 25, 6 Hours Post-Dose", "result": 4.44, "unit": "µmol/L"}, {"measurement": "Increase from Baseline in Directly Measured NCC, Mean", "setting": "participants with WD; Day 25, 8 Hours Post-Dose", "result": 5.101, "unit": "µmol/L"}, {"measurement": "Increase from Baseline in Directly Measured NCC, Mean", "setting": "participants with WD; Day 25, 12 Hours Post-Dose", "result": 4.917, "unit": "µmol/L"}, {"measurement": "Increase from Baseline in Directly Measured NCC, Mean", "setting": "participants with WD; Day 25, 24 Hours Post-Dose", "result": 3.438, "unit": "µmol/L"}, {"measurement": "Increase from Baseline in Directly Measured NCC, Mean", "setting": "participants with WD; Day 25, −0.5 Hours", "result": 2.121, "unit": "µmol/L"}, {"measurement": "Increase from Baseline in Directly Measured NCC, Mean", "setting": "participants with WD; Day 27, Pre-Dose, N=2", "result": 2.767, "unit": "µmol/L"}, {"measurement": "Increase from Baseline in Directly Measured NCC, Mean", "setting": "participants with WD; Day 28, Pre-Dose, N=2", "result": 2.327, "unit": "µmol/L"}, {"measurement": "Increase from Baseline in Directly Measured NCC, Mean", "setting": "participants with WD; Day 29, 2 Hours Post-Dose", "result": 2.814, "unit": "µmol/L"}, {"measurement": "Increase from Baseline in Directly Measured NCC, Mean", "setting": "participants with WD; Day 29, 4 Hours Post-Dose", "result": 3.38, "unit": "µmol/L"}, {"measurement": "Increase from Baseline in Directly Measured NCC, Mean", "setting": "participants with WD; Day 29, 5 Hours Post-Dose", "result": 4.078, "unit": "µmol/L"}, {"measurement": "Increase from Baseline in Directly Measured NCC, Mean", "setting": "participants with WD; Day 29, 6 Hours Post-Dose", "result": 4.686, "unit": "µmol/L"}, {"measurement": "Increase from Baseline in Directly Measured NCC, Mean", "setting": "participants with WD; Day 29, 8 Hours Post-Dose", "result": 5.305, "unit": "µmol/L"}, {"measurement": "Increase from Baseline in Directly Measured NCC, Mean", "setting": "participants with WD; Day 29, 12 Hours Post-Dose", "result": 4.749, "unit": "µmol/L"}, {"measurement": "Increase from Baseline in Directly Measured NCC, Mean", "setting": "participants with WD; Day 29, 24 Hours Post-Dose", "result": 3.543, "unit": "µmol/L"}, {"measurement": "Increase from Baseline in Directly Measured NCC, Mean", "setting": "participants with WD; Day 29, −0.5 Hours", "result": 2.662, "unit": "µmol/L"}, {"measurement": "Increase from Baseline in Directly Measured NCC, Mean", "setting": "participants with WD; Day 31, Pre-Dose, N=2", "result": 4.121, "unit": "µmol/L"}, {"measurement": "Increase from Baseline in Directly Measured NCC, Mean", "setting": "participants with WD; Day 32, Pre-Dose, N=1", "result": 8.131, "unit": "µmol/L"}, {"measurement": "Increase from Baseline in Directly Measured NCC, Mean", "setting": "participants with WD; Day 33, Pre-Dose, N=2", "result": 4.231, "unit": "µmol/L"}, {"measurement": "Increase from Baseline in Directly Measured NCC, Mean", "setting": "participants with WD; Day 34, Pre-Dose, N=2", "result": 4.103, "unit": "µmol/L"}, {"measurement": "Increase from Baseline in Directly Measured NCC, Mean", "setting": "participants with WD; Day 35, Pre-Dose, N=2", "result": 4.49, "unit": "µmol/L"}, {"measurement": "Increase from Baseline in Directly Measured NCC, Mean", "setting": "participants with WD; Day 36, Pre-Dose, N=2", "result": 3.465, "unit": "µmol/L"}, {"measurement": "Increase from Baseline in Directly Measured NCC, Mean", "setting": "participants with WD; Day 37, Pre-Dose, N=2", "result": 4.168, "unit": "µmol/L"}, {"measurement": "Increase from Baseline in Directly Measured NCC, Mean", "setting": "participants with WD; Day 38, Pre-Dose, N=1", "result": 7.643, "unit": "µmol/L"}, {"measurement": "Increase from Baseline in Directly Measured NCC, Mean", "setting": "participants with WD; Day 39, 2 Hours Post-Dose", "result": 3.816, "unit": "µmol/L"}, {"measurement": "Increase from Baseline in Directly Measured NCC, Mean", "setting": "participants with WD; Day 39, 4 Hours Post-Dose", "result": 5.578, "unit": "µmol/L"}, {"measurement": "Increase from Baseline in Directly Measured NCC, Mean", "setting": "participants with WD; Day 39, 5 Hours Post-Dose", "result": 6.26, "unit": "µmol/L"}, {"measurement": "Increase from Baseline in Directly Measured NCC, Mean", "setting": "participants with WD; Day 39, 6 Hours Post-Dose", "result": 6.659, "unit": "µmol/L"}, {"measurement": "Increase from Baseline in Directly Measured NCC, Mean", "setting": "participants with WD; Day 39, 8 Hours Post-Dose", "result": 7.32, "unit": "µmol/L"}, {"measurement": "Increase from Baseline in Directly Measured NCC, Mean", "setting": "participants with WD; Day 39, 12 Hours Post-Dose", "result": 6.554, "unit": "µmol/L"}, {"measurement": "Increase from Baseline in Directly Measured NCC, Mean", "setting": "participants with WD; Day 39, 24 Hours Post-Dose", "result": 4.545, "unit": "µmol/L"}, {"measurement": "Increase from Baseline in Directly Measured NCC, Mean", "setting": "participants with WD; Day 39, −0.5 Hours", "result": 3.412, "unit": "µmol/L"}]}
